Laboratory results from patent publication US4238491A (priority 1977, dated 1980).
Like-named read-outs stand apart in the source and are kept apart here.

Columns and labels:
[1] = in vivo; cited from earlier work
blood pressure of SHR = experiment: Antihypertensive effect by single administration, SHR, direct cannulation; assay type: in vivo, rat (spontaneously hypertensive rats; conditions: for average rate of decrease in blood pressure: over 6 hours; for blood pressure decrease: 6 hours after; for ED (20% blood pressure decrease): Rattus norvegicus, read-out: DB20 (20% blood pressure descending dose)
Method: The effect was examined through both direct and modified tail-cuff methods using male SHRs aged 25 to 30 weeks and weighing about 300 g.
In the direct cannulation method, polyethylene cannules were inserted in femoral arteries of the conscious unanesthesized SHRs under back-fixation,and MR solution was administered in an amount of 0.1 mg/100 g of weight for venous injection, and 1 ml/100 g of weight for oral administration. Changes in the blood pressure over 6 hours were measured with a multi-purpose polygraph RM-85 made by NIHON KODEN Co., Ltd. MR was dissolved in 0.9% NaCl aqueous solution with 1 N-HCl, and the solution was neutralized for use.

[2] = test system: blood pressure of anesthesized dogs; experiment: Effect on blood pressure of anesthesized dogs; assay type: in vivo, dog (mongrel); conditions: for average rate of blood pressure decrease: within 6 hours
Method: Changes in blood pressure were measured for 6 hours after the administration with a multi-purpose polygraph RM-85 made by NIHON KODEN.
The observed effect was a blood pressure decrease immediately after administration which came up nearly to plateau 2 hours after for 1 mg/kg, and 3 hours after for 3 mg/kg and 9 mg/kg, and in all cases remained on the plateau for 6 hours after that. The DB20 value obtained from the dose-response curve of FIG. 6 was 2 mg/kg.

serotonin in Brain = conditions: in vivo; cited from earlier work
rats [3] = test system: rats
Method: Urinanalysis was conducted on the last day of the repeated administration as to pH, protein content, glucose content, ketone body content and occult blood by testing paper methods. (Labstix, Miles-Sankyo Co., Ltd.)

[4] = Excretion into bile after venous injection; assay type: in vivo; conditions: rabbit, iv, within 6 hours, of amount administered
Method: From the Figure it is recognized that an amount as small as 0.3 to 0.5% of the administered MR is discharged into bile within 6 hours after administration.

histamine = conditions: in vivo; cited from earlier work
in vivo = assay type: in vivo, rat (SD (SPF)); conditions: rat, in vivo; oral sub-acute, rats; read-out: ineffective dose
Method: (§1) All the rats were observed daily and general symptoms noted. Weight was measured daily, average food-intake once every three days, and average water-intake once every two days.

rats [5] = experiment: in vivo; assay type: in vivo, rat (SD (SPF))
Method: as §1

[6] = Change of MR content in blood (serum level); assay type: in vivo, dogs, rabbits and rats
Method: In case of oral administration, the animals were not permitted to eat for 24 hours, except for the experiment of biotransformation.

[7] = test system: spontaneous motor activity; experiment: Effect on spontaneous motor activity; assay type: in vivo, mouse (dd-strain); conditions: 25 mg/kg oral
Method: 25 mg/kg of MR were administered to the mice. After 15 minutes of letting them alone, spontaneous motor activity over 6 hours was measured hourly with an "Animex" made by AB Farad.

SMILES: COC(=O)[C@H]1[C@H]2C[C@@H]3c4[nH]c5cc(OC)ccc5c4CCN3C[C@H]2C[C@@H](O)[C@@H]1OC [MR, methylreserpate]
- antihypertensive effect [1]: no antihypertensive effect
- average rate of decrease in blood pressure (blood pressure of SHR; 2 mg/kg venous injection): 13%
- onset of blood pressure decrease (blood pressure of SHR; 4 mg/kg oral): 2 h
- blood pressure decrease (blood pressure of SHR; 4 mg/kg oral): 18%
- average rate of decrease in blood pressure (blood pressure of SHR; 4 mg/kg venous injection): 22.5%
- blood pressure decrease (blood pressure of SHR; 8 mg/kg oral): 26%
- average rate of decrease in blood pressure (blood pressure of SHR; 8 mg/kg venous injection): 28%
- blood pressure decrease (blood pressure of SHR; 16 mg/kg oral): 37%
- ED (20% blood pressure decrease) (blood pressure of SHR; iv, I.V.): 3.5 mg/kg
- ED (20% blood pressure decrease) (blood pressure of SHR; po, P.O.): 11.9 mg/kg
- antihypertensive effect compared with RCN (blood pressure of SHR; oral): almost the same
- antihypertensive effect (blood pressure of SHR; oral, summary for SHR and dogs): prolonged antihypertensive effect
- antihypertensive effect compared with RCN (blood pressure of SHR; venous injection): less intense
- time to plateau ([2]; 1 mg/kg intravenous): 2 h
- time to plateau ([2]; 3 mg/kg intravenous): 3 h
- average rate of blood pressure decrease ([2]; 3 mg/kg intravenous): 22.3%
- time to plateau ([2]; 9 mg/kg intravenous): 3 h
- average rate of blood pressure decrease ([2]; 9 mg/kg intravenous): 35.1%
- duration of plateau ([2]; 1, 3 and 9 mg/kg intravenous): 6 h
- ED (DB20) ([2]; Canis lupus familiaris, 6 h, intravenous, from dose-response curve of FIG. 6): 2 mg/kg
- serotonin in Brain (serotonin in Brain): no decrease of serotonin in Brain
- urine Glucose - (rats [3]; 25.0 mg/kg): 10 Number of Rats
- urine Ketone Body + (rats [3]; 25.0 mg/kg): 0 Number of Rats
- urine Ketone Body - (rats [3]; 25.0 mg/kg): 10 Number of Rats
- urine Occult Blood - (rats [3]; 25.0 mg/kg): 10 Number of Rats
- urine Protein + (rats [3]; 25.0 mg/kg): 6 Number of Rats
- urine Protein ++ (rats [3]; 25.0 mg/kg): 4 Number of Rats
- urine Protein +++ (rats [3]; 25.0 mg/kg): 0 Number of Rats
- urine Protein - (rats [3]; 25.0 mg/kg): 0 Number of Rats
- urine pH 6 (rats [3]; 25.0 mg/kg): 2 Number of Rats
- urine pH 7 (rats [3]; 25.0 mg/kg): 7 Number of Rats
- urine pH 8 (rats [3]; 25.0 mg/kg): 1 Number of Rats
- urine Glucose - (rats [3]; 50.0 mg/kg): 10 Number of Rats
- urine Ketone Body + (rats [3]; 50.0 mg/kg): 1 Number of Rats
- urine Ketone Body - (rats [3]; 50.0 mg/kg): 9 Number of Rats
- urine Occult Blood - (rats [3]; 50.0 mg/kg): 10 Number of Rats
- urine Protein + (rats [3]; 50.0 mg/kg): 6 Number of Rats
- urine Protein ++ (rats [3]; 50.0 mg/kg): 4 Number of Rats
- urine Protein +++ (rats [3]; 50.0 mg/kg): 0 Number of Rats
- urine Protein - (rats [3]; 50.0 mg/kg): 0 Number of Rats
- urine pH 6 (rats [3]; 50.0 mg/kg): 1 Number of Rats
- urine pH 7 (rats [3]; 50.0 mg/kg): 7 Number of Rats
- urine pH 8 (rats [3]; 50.0 mg/kg): 2 Number of Rats
- urine Glucose - (rats [3]; 100.0 mg/kg): 10 Number of Rats
- urine Ketone Body + (rats [3]; 100.0 mg/kg): 1 Number of Rats
- urine Ketone Body - (rats [3]; 100.0 mg/kg): 9 Number of Rats
- urine Occult Blood - (rats [3]; 100.0 mg/kg): 10 Number of Rats
- urine Protein + (rats [3]; 100.0 mg/kg): 3 Number of Rats
- urine Protein ++ (rats [3]; 100.0 mg/kg): 3 Number of Rats
- urine Protein +++ (rats [3]; 100.0 mg/kg): 3 Number of Rats
- urine Protein - (rats [3]; 100.0 mg/kg): 1 Number of Rats
- urine pH 6 (rats [3]; 100.0 mg/kg): 2 Number of Rats
- urine pH 7 (rats [3]; 100.0 mg/kg): 7 Number of Rats
- urine pH 8 (rats [3]; 100.0 mg/kg): 1 Number of Rats
- increase in urine volume, interpretation (rats [3]; higher doses): seems to be a diuretic effect
- urinanalysis overall (rats [3]; last day of repeated administration): do not indicate abnormal feature any worth special mention
- urine Glucose - (rats [3]; rat, in vivo): 10 Number of Rats
- urine Ketone Body + (rats [3]; rat, in vivo): 0 Number of Rats
- urine Ketone Body - (rats [3]; rat, in vivo): 10 Number of Rats
- urine Occult Blood - (rats [3]; rat, in vivo): 10 Number of Rats
- urine Protein + (rats [3]; rat, in vivo): 5 Number of Rats
- urine Protein ++ (rats [3]; rat, in vivo): 3 Number of Rats
- urine Protein +++ (rats [3]; rat, in vivo): 2 Number of Rats
- urine Protein - (rats [3]; rat, in vivo): 0 Number of Rats
- urine pH 6 (rats [3]; rat, in vivo, pH 6): 3 Number of Rats
- urine pH 7 (rats [3]; rat, in vivo, pH 7): 4 Number of Rats
- urine pH 8 (rats [3]; rat, in vivo, pH 8): 3 Number of Rats
- dose excreted at 6 h [4]: 0.3 to 0.5%
- histamine (histamine): increse of histamine
- NOAEL (in vivo): 12.5 mg/kg
- side effects (rats [5]; only at the higher doses): blepharoptosis, leukopenia, increase of urine volume, atrophy of hematopoietic organs, cortial hypertrophy of adrenal and degeneration of liver cells (in dead rats)
- food-intake (rats [5]; rat, in vivo): No difference
- general symptoms (rats [5]; rat, in vivo): blepharoptosis, roughening of fur and dirtiness of public region
- general symptoms, additional (rats [5]; rat, in vivo): reduction of body weight, bloody cojunctival discharge, and a decrease of limb-skin temperature
- absorption in the digestive tract ([6]; in vivo): readily absorbed
- correlation of serum level pattern with pattern of blood pressure decrease ([6]; in vivo): high corralation
- absorption from digestive tracts compared with RSP and RCN ([6]; oral): more readily absorbed
- Tmax ([6]; serum, po, 10 mg/kg, after administration, read-out: time of maximum serum level): 1 to 2 h
- average suppressive effect among four groups ([7]; P=0.05): no significant difference
- effect on spontaneous motor activity ([7]; from 3 hours after): tended to supress spontaneous motor activity
